These are literature values, as cited in patent US20210337800A1, “METHOD AND SYSTEM OF IMPROVING THE PERSONAL PROTECTIVE EQUIPMENT OF […] AND THE GENERAL PUBLIC USING ANT[…]” (Sockdocs Inc., priority 2020, published 2021).

In this data set the test system is viruses. The following applies: testing in 2006; no method or virus named.

As to `CCCCCCCCCCCCCCCCCC[N+](C)(C)CCC[Si](OC)(OC)OC.[Cl-]` [3-(trimethoxysilyl) propyldimethyloctadecyl ammonium chloride], the anti-viral activity entry is reported as “showed anti-viral activity”.
